# ChEMBL document CHEMBL1122370 (J Med Chem, 1983)
# Columns and labels:
# [1] = system: L1210; experiment: In vivo antitumor activity against L1210 leukemia in 5 mice measured as median survival range at 20 mg/kg; Value ranges from(11-19); type: functional, Mus musculus
# [2] = system: L1210; experiment: In vivo antitumor activity against L1210 leukemia in 5 mice measured as median survival range at 40 mg/kg; value ranges from(11-21); type: functional, Mus musculus
# [3] = system: L1210; experiment: In vivo antitumor activity against L1210 leukemia in 13 mice measured as T/C values; T/C = 13/9; type: functional, Mus musculus
# [4] = system: L1210; experiment: In vivo antitumor activity against L1210 leukemia in 17 mice measured as T/C values; T/C = 17/9; type: functional, Mus musculus
# [5] = system: L1210; experiment: In vivo antitumor activity against L1210 leukemia in 5 mice measured as Increased life span at 20 mg/kg.; type: functional; details: Mus musculus
# [6] = system: L1210; experiment: In vivo antitumor activity against L1210 leukemia in 5 mice measured as Increased life span at 40 mg/kg.; type: functional; details: Mus musculus
# [7] = system: Mus musculus; experiment: Average weight of the mouse after treating with 20 mg/kg dose for 1 day.; type: functional; parameters: unit not given here
# [8] = system: Mus musculus; experiment: (§1) Average weight of the mouse after treating with 40 mg/kg dose for 1 day.; type: functional; parameters: unit not given here
# [9] = system: Mus musculus; experiment: Average weight of the mouse after treating with 20 mg/kg dose for 7 day.; type: functional
# [10] = system: Mus musculus; experiment: (§2) Average weight of the mouse after treating with 40 mg/kg dose for 7 days.; type: functional
# [11] = system: L1210; experiment: In vivo antitumor activity against L1210 leukemia in 5 mice measured as median survival range at 20 mg/kg; Value ranges from(15-17).; type: functional, Mus musculus
# [12] = system: L1210; experiment: In vivo antitumor activity against L1210 leukemia in 5 mice measured as median survival range at 40 mg/kg; Value ranges from(21-31).; type: functional, Mus musculus
# [13] = system: L1210; experiment: In vivo antitumor activity against L1210 leukemia in 5 mice measured as median survival range at 10 mg/kg; Value ranges from(14-22); type: functional, Mus musculus
# [14] = system: L1210; experiment: In vivo antitumor activity against L1210 leukemia in 16 mice measured as T/C values; T/C = 16/9; type: functional, Mus musculus
# [15] = system: L1210; experiment: In vivo antitumor activity against L1210 leukemia in 5 mice measured as Increased life span at 10 mg/kg.; type: functional; details: Mus musculus
# [16] = system: L1210; experiment: In vivo antitumor activity against L1210 leukemia in 5 mice measured as T/C values; T/C = 22/9; type: functional, Mus musculus
# [17] = system: L1210; experiment: In vivo anti tumor activity against L1210 leukemia in 5 mice measured as Increased life span at 40 mg/kg.; type: functional; details: Mus musculus
# [18] = system: Mus musculus; experiment: Average weight of the mouse after treating with 10 mg/kg dose for 1 day.; type: functional; parameters: unit not given here
# [19] = system: Mus musculus; experiment: as §1; type: functional
# [20] = system: Mus musculus; experiment: Average weight of the mouse after treating with 10 mg/kg dose for 7 days.; type: functional
# [21] = system: Mus musculus; experiment: Average weight of the mouse after treating with 20 mg/kg dose for 7 days.; type: functional; parameters: unit not given beside the values
# [22] = system: Mus musculus; experiment: as §2; type: functional; parameters: unit not given beside the values
# [23] = system: L1210; experiment: In vivo antitumor activity against L1210 leukemia in 5 mice measured as median survival range at 20 mg/kg; Value ranges from(12-14); type: functional, Mus musculus
# [24] = system: L1210; experiment: In vivo antitumor activity against L1210 leukemia in 5 mice measured as median survival range at 40 mg/kg; Value ranges from(14-17); parameters: dose 40 mg/kg; details: mouse
# [25] = system: L1210; experiment: In vivo antitumor activity against L1210 leukemia in 19 mice measured as T/C value; T/C = 19/9; type: functional, Mus musculus
# [26] = system: L1210; experiment: In vivo antitumor activity against L1210 leukemia in 5 mice measured as Increased life span.; type: functional, Mus musculus
# [27] = system: L1210; experiment: In vivo antitumor activity against L1210 leukemia in 5 mice measured as median survival range at 80 mg/kg; Value ranges from(13-20).; type: functional, Mus musculus
# [28] = system: Mus musculus; experiment: Average weight of the mouse after treating with 80 mg/kg dose for 1 day.; type: functional; parameters: unit not given here
# [29] = system: Mus musculus; experiment: Average weight of the mouse after treating with 80 mg/kg dose for 7 days.; type: functional; parameters: unit not given beside the values
# [30] = system: L1210; experiment: In vivo antitumor activity against L1210 leukemia in 5 mice measured as median survival range at 40 mg/kg; Value ranges from(13-19); type: functional, Mus musculus
# [31] = system: L1210; experiment: In vivo antitumor activity against L1210 leukemia in 10 mice measured as median survival range at 120 mg/kg; Value ranges from(13-36); type: functional, Mus musculus
# [32] = system: L1210; experiment: In vivo antitumor activity against L1210 leukemia in 5 mice measured as median survival range at 140 mg/kg; Value ranges from(8-27).; type: functional, Mus musculus
# [33] = system: L1210; experiment: In vivo antitumor activity against L1210 leukemia in 14 mice measured as T/C values(days); T/C = 14/9; type: functional, Mus musculus
# [34] = system: L1210; experiment: In vivo antitumor activity against L1210 leukemia in 15 mice measured as T/C values(days); T/C = 15/9; type: functional, Mus musculus
# [35] = system: L1210; experiment: In vivo antitumor activity against L1210 leukemia in 22 mice measured as T/C values(days); T/C = 22/9; type: functional, Mus musculus
# [36] = system: L1210; experiment: In vivo antitumor activity against L1210 leukemia in 23 mice measured as T/C values(days); T/C = 23/9; type: functional, Mus musculus
# [37] = system: L1210; experiment: In vivo antitumor activity against L1210 leukemia in 10 mice measured as Increased life span at 120 mg/kg.; type: functional; details: Mus musculus
# [38] = system: L1210; experiment: In vivo antitumor activity against L1210 leukemia in 5 mice measured as Increased life span at 140 mg/kg.; type: functional; details: Mus musculus
# [39] = system: L1210; experiment: In vivo antitumor activity against L1210 leukemia in 5 mice measured as Increased life span at 80 mg/kg.; type: functional; details: Mus musculus
# [40] = system: L1210; experiment: In vivo antitumor activity against L1210 leukemia in 5 mice measured as T/C values(days); T/C = 21/9; type: functional, Mus musculus
# [41] = system: L1210; experiment: In vivo antitumor activity against L1210 leukemia in 5 mice measured as median survival range at 20 mg/kg; Value ranges from(11-14); type: functional, Mus musculus
# [42] = system: L1210; experiment: In vivo antitumor activity against L1210 leukemia in 5 mice measured as median survival range at 80 mg/kg; Value ranges from(13-26); type: functional, Mus musculus
# [43] = system: Mus musculus; experiment: Average weight of the mouse after treating with 120 mg/kg dose for 1 day.; type: functional
# [44] = system: Mus musculus; experiment: Average weight of the mouse after treating with 140 mg/kg dose for 1 day.; type: functional
# [45] = system: Mus musculus; experiment: Average weight of the mouse after treating with 120 mg/kg dose for 7 days.; type: functional
# [46] = system: Mus musculus; experiment: Average weight of the mouse after treating with 140 mg/kg dose for 7 days.; type: functional
compound,measurement,setting,value
Cc1cc(C)c(COC(=O)CCC(NC(=O)c2ccc(N(C)Cc3cnc4nc(N)nc(N)c4n3)cc2)C(=O)OCc2c(C)cc(C)cc2C)c(C)c1 (stereo not drawn),Range,[1],19
same,Range,[2],21
same,T/C,[3],9
same,T/C,[4],9
same,ILS at 20 mg/kg,[5],44%
same,ILS at 40 mg/kg,[6],88%
same,Average weight,[7],20.4
same,Average weight,[8],22
same,Weight change,[9],0.8
same,Weight change,[10],0
CN(Cc1cnc2nc(N)nc(N)c2n1)c1ccc(C(=O)NC(CCC(=O)OCc2cccnc2)C(=O)OCc2cccnc2)cc1 (stereo not drawn),Range,[11],17
same,Range,[12],31
same,Range,[13],22
same,T/C,[14],9
same,T/C,[4],9
same,ILS at 10 mg/kg,[15],88%
same,ILS at 20 mg/kg,[5],77%
same,T/C,[16],9
same,ILS at 40 mg/kg,[17],144%
same,Average weight,[18],21.3
same,Average weight,[7],22
same,Average weight,[19],26
same,Weight change,[20],1.1
same,Weight change,[21],1
same,Weight change,[22],2
CCCCOC(=O)C(CCC(=O)OCc1cccnc1)NC(=O)c1ccc(N(C)Cc2cnc3nc(N)nc(N)c3n2)cc1 (stereo not drawn),Range,[23],14
same,Range,[24],17
same,T/C,[25],9
same,ILS at 20 mg/kg,[5],50%
same,ILS at 40 mg/kg,[6],75%
same,ILS,[26],137%
same,Range,[27],20
same,Average weight,[28],22
same,Average weight,[7],21.1
same,Average weight,[8],21.2
same,Weight change,[21],2.4
same,Weight change,[29],0.3
same,Weight change,[22],1.7
CCCC(C)OC(=O)CCC(NC(=O)c1cc(Cl)c(N(C)Cc2cnc3nc(N)nc(N)c3n2)c(Cl)c1)C(=O)OC(C)CCC (stereo not drawn),Range,[30],19
same,Range,[31],36
same,Range,[32],27
same,T/C,[33],9
same,T/C,[34],9
same,T/C,[35],22
same,T/C,[36],9
same,ILS at 120 mg/kg,[37],145%
same,ILS at 140 mg/kg,[38],155%
same,ILS at 20 mg/kg,[5],55%
same,ILS at 40 mg/kg,[6],66%
same,ILS at 80 mg/kg,[39],133%
same,T/C,[40],9
same,Range,[41],14
same,Range,[42],26
same,Average weight,[43],21.5
same,Average weight,[44],21.6
same,Average weight,[28],21.2
same,Average weight,[7],22.1
same,Average weight,[8],20.6
same,Weight change,[45],1.4
same,Weight change,[46],3.2
same,Weight change,[21],2.6
same,Weight change,[29],1.5
same,Weight change,[22],0.1
